Converted amounts (≈) assume the structure as drawn. Like-named read-outs stand apart in the source and are kept apart here.
Key:
[1] = Enhancer screening: tritiated water permeation through nails in Franz-type diffusion cells (toenails); conditions: Table 2; pyrithione gels, each relative to its own control
Description: Frozen human toenails and fingernails were obtained from tissue banks based on a protocol for size, patient history, etc. The nails were thawed at room temperature for 1 hour, and the adhering skin and tissue was removed with a pair of scissors and a scalpel. The nails were cleaned by rinsing them in a mild detergent solution (1% solution of a standard liquid soap containing sodium and potassium dodecyl benzene sulfonate and ammonium laureth sulfate), followed by two rinses in deionized water (DI water). The thickness of the nails was measured with a micrometer, and the nails were immersed in 10 mL of DI water for 24 hours just prior to use to allow complete hydration and bring all the nails to the same condition for valid comparisons (Kobayashi, et al. (1998) Chem. Pharm. Bull. 46(11):1797-1802; Walters, et al. (1981) J Invest Dermatol 76:76-79; Mertin and Lippold (1997) J Pharm Pharmacol 49:30-34).
Franz-type diffusion cells (Crown Glass Co., Somerville, N.J.), specially designed to hold the human nail were used (Malhotra and Zatz (2000) J Cosmet Sci 51:367-377). The cleaned, trimmed nails were clamped into the diffusion cells. […]
All gels were prepared using the same general procedure. […] The apparent pH of the gels was measured. Prior to use, three 10 μL aliquots of the gel were analyzed by Liquid Scintillation Counting (LSC) to validate uniformity of spiking. […]

[2] = Solubility of clotrimazole in PEG-20-oleyl ether receptor fluid (HPLC); format: physicochemical; conditions: aqueous PEG-20-oleyl ether surfactant solution, 37 °C, aqueous with cosolvent or surfactant or cyclodextrin, thermodynamic from solid, read-out: Solubility of clotrimazole (Mean ± SEM, n = 3)
Description: Aqueous solutions of PEG-20-oleyl ether in concentrations of 0.5%, 1%, 2%, and 5% were prepared. Excess clotrimazole was added to vials containing 10 mL of surfactant solution. For each surfactant concentration, the solubility determination was done in triplicate. The vials were agitated in a mechanical shaker bath (Precision Scientific, Chicago, Ill.) maintained at 37° C. for 24 hours. The vials were then centrifuged (Fisher Scientific, Springfield, N.J.) at 4600 rpm for 30 minutes at 25° C. The supernatant was analyzed for drug concentration by High Performance Liquid Chromatography (HPLC).
The HPLC conditions were adapted from well known methods, for example Hoogerheide, et al. ((1981) J Assoc Off Anal Chem 64:864-869) and Rifai, et al. ((1995) Clin Chem 41:387-391). The HPLC analysis was performed using a Waters 600E System Controller Pump, Waters 717 Autoinjector, Waters 486 Tunable Absorbance Detector, and Waters 700 Data Module Integrator. A reverse-phase C-18 column (Waters Novapak, 3.9×150 mm, 4μ) was used. The mobile phase consisted of a mixture of 0.025M dibasic potassium phosphate (pH adjusted to approximately 6.3 with o-phosphoric acid) and HPLC grade methanol in the ratio 1:3. A flow rate of 1 mL/minute was maintained and the detector wavelength was set at 254 nm.
Standard solutions of clotrimazole in mobile phase were prepared in the concentration range of 5-200 μg/mL. The injection volume of standard and sample solutions was 20 μL.
The chromatography conditions yielded a linear standard curve (R^2=0.9995). From the standard curve, the solubility of clotrimazole in different concentrations of PEG-20-oleyl ether was quantitatively determined.

[3] = 25° C.; Hoogerheide and Wyka (1982); cited from earlier work

Row | Compound | EFwater [1] | solubility at 24 h ([2]; 0.5% PEG-20-oleyl ether in water) [µg/mL] | solubility at 24 h ([2]; 1.0% PEG-20-oleyl ether in water) [µg/mL] | solubility at 24 h ([2]; 2.0% PEG-20-oleyl ether in water) [µg/mL] | solubility at 24 h ([2]; 5.0% PEG-20-oleyl ether in water) [µg/mL] | solubility in alcohol [3] [mg/mL] | solubility in water [3] [mg/mL]
1 | [Na+].[O-][n+]1ccccc1[S-] [NaPTO, sodium pyrithione] | ~1 | – | – | – | – | – | –
2 | Clc1ccccc1C(c1ccccc1)(c1ccccc1)n1ccnc1 [clotrimazole] | – | 75.2 (≈ 218 µM) | 191 (≈ 553 µM) | 499 (≈ 1450 µM) | 1350 (≈ 3930 µM) | 95 (≈ 275000 µM) | < 0.01
3 | zinc pyrithione [ZnPTO] | 1.13 | – | – | – | – | – | –
